The text below walks through data of ChEMBL document CHEMBL3603746, “Discovery of New H2S Releasing Phosphordithioates and 2,3-Dihydro-2-phenyl-2-sulfanylenebenzo[d][1,3,2]oxazaphospholes with Improved Antiproliferative Activity” (J Med Chem, 2015).

Data set [1] deals with MCF7. In words: Antitumor activity against human MCF7 tumor spheroids assessed as tumor growth inhibition at 800 uM after 14 days by inverted microscopic analysis relative to control. The format is functional. The following applies: MCF7, 336 h, read-out: TGI.
Data set [2] relates to MCF7. The data set can be described thus: Antitumor activity against human MCF7 tumor spheroids assessed as tumor growth inhibition at 200 uM after 14 days by inverted microscopic analysis relative to control. In kind it is functional. The following applies: MCF7, 336 h, read-out: TGI.
In data set [3] the test system is MCF7. The data set can be described thus: Cytotoxicity against human MCF7 cells assessed as inhibition of cell proliferation after 4 days by crystal violet assay. In kind it is functional, cell-based. The following applies: MCF7, 96 h.
Data set [4] can be described thus: Toxicity in human WI38 cells assessed as inhibition of cell proliferation after 4 days by crystal violet assay.
In data set [5] the test system is MCF7. The data set can be described thus: Antitumor activity against human MCF7 tumor spheroids assessed as tumor growth inhibition at 400 uM after 14 days by inverted microscopic analysis relative to control. The following applies: MCF7, 336 h, read-out: TGI. In kind it is functional.
Data set [6] in a line: Toxicity in transforming growth factor alpha transgenic mouse hepatocytes assessed as inhibition of cell proliferation after 24 hrs by CellTiter-Glo cell viability assay. The format is cell-based, Hepatocyte. For orientation: Cellular ATP, detected with luciferase, serves as a proxy for viable cell number.
Data set [7] is described as follows: Induction of H2S release in 10% PBS:MeCN solution at 100 uM incubated at 37 degC in dark condition measured at 72 hrs by 2, 6-dansyl azide probed-based fluorescence assay. As to conditions: buffer. The format is physicochemical.
Data set [8] can be described thus: Toxicity in human AC10 cells assessed as inhibition of cell proliferation after 24 hrs by CellTiter-Glo cell viability assay. In kind it is cell-based.
In a further data set the test system is SK-OV-3. The data set can be described thus: Cytotoxicity against human SKOV3 cells assessed as inhibition of cell proliferation after 4 days by crystal violet assay. The format is functional, cell-based. The following applies: SK-OV-3, 96 h.
Data set [9] is described as follows: Induction of H2S release in 10% PBS:MeCN solution at 1 mM incubated at 22 degC in dark condition measured at 72 hrs by 2, 6-dansyl azide probed-based fluorescence assay. In kind it is physicochemical. The following applies: buffer, 1000 µM.
Data set [10] relates to MCF7. In words: Antitumor activity against human MCF7 tumor spheroids assessed as tumor growth inhibition at 100 uM after 14 days by inverted microscopic analysis relative to control. As to conditions: MCF7, 336 h, read-out: TGI. In kind it is functional.
Data set [11] in a line: Therapeutic index, ratio of IC50 for human WI38 cells to IC50 for human SKOV3 cells. As to conditions: WI38 cells and SKOV3 cells.

The term IC50 denotes the point on the concentration scale where inhibition reaches its midpoint. Consider `S=P1(c2ccccc2)Nc2ccccc2O1` (configuration not stated), for which the inhibition of growth at 800 µM in the data set with MCF7 [1] stood at 91%. In addition, the inhibition of growth at 200 µM with MCF7 [2] worked out at 75.3%. For the same compound, the concentration for half-maximal inhibition (IC50) with MCF7 [3] stood at 5.7 µM; in the data set with SK-OV-3 it was 6.12 µM. The IC50 at 4 days in data set [4] was greater than 50 µM. The inhibition of growth at 400 µM in the data set with MCF7 [5] was 83.7%. Moreover, the IC50 at 24 h in data set [6] is 26.3 µM; in data set [8], 98 µM. In addition, the results for the Activity in data set [7] and in data set [9] were 77.6 µM and 150 µM, respectively. The inhibition of growth at 100 µM with MCF7 [10] amounted to 69.7%. The selectivity ratio in data set [11] came out at 8.2.
